One test concerns the target T1, human PPARα (hPPARα) (Homo sapiens, UniProt Q07869).
T1 construct: expressed in transfected cells; host or cells: HepG2 (human hepatoblastoma)
T1 sequence (Q07869 239-466 limits assumed): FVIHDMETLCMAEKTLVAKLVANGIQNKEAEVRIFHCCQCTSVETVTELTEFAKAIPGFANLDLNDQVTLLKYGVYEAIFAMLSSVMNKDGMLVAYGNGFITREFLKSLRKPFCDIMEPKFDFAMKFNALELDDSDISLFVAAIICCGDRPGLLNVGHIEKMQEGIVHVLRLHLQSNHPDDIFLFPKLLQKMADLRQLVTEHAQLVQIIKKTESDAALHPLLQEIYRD
Briefly: GAL4-PPARα transactivation assay in transiently transfected HepG2 cells. In kind it is cell-based. To be noted: HepG2. From the text:
For this purpose, GAL4-PPAR chimeric receptors were expressed in transiently transfected HepG2 cells according to a previously reported procedure. […] Maximum obtained fold induction with the reference agonist was defined as 100%.
The expression vectors bearing the chimeric receptor containing the yeast Gal4-DNA binding domain fused to the human PPARα- or PPARγ-LBD, and the reporter plasmid for these Gal4 chimeric receptors (pGal5TKpGL3), comprising five repeats of the Gal4 response elements upstream of a minimal thymidine kinase promoter adjacent to the coding sequence for luciferase, were described in a previous work.
A culture of the human hepatoblastoma cell line HepG2 (Interlab Cell Line Collection, Genoa, Italy) was conducted in minimum essential medium (MEM) containing 10% heat-inactivated fetal bovine serum, 100 U of penicillin G mL^−1, and 100 μg of streptomycin sulfate mL^−1 at 37 °C in a humidified atmosphere of 5% CO2. For transactivation assays, cells were seeded in a 24-well plate at a concentration of 10^5 cells per well, and were transfected after 24 h with CAPHOS, a calcium phosphate method, according to the manufacturer’s guidelines. Cell transfection was performed using expression plasmids encoding the fusion protein Gal4−PPARα-LBD or Gal4−PPARγ-LBD (30 ng), pGal5TKpGL3 (100 ng), and pCMVβgal (250 ng). Following transfection, cells were incubated for 4 h, after which they underwent treatment with the indicated ligands in triplicate for 20 h. Cell extracts were subsequently analyzed for luciferase activity via luminometry (VICTOR^3 V multilabel plate reader, PerkinElmer). Ortho-nitrophenyl-β-D-galactopyranoside was used to measure β-Galactosidase activity, following a previously described method. All transfection experiments were performed at least twice.

The next test concerns the target T2, FAAH Human recombinant (Homo sapiens, UniProt O00519).
T2 construct: purchased Cayman Chemical
T2 sequence (O00519 1-579): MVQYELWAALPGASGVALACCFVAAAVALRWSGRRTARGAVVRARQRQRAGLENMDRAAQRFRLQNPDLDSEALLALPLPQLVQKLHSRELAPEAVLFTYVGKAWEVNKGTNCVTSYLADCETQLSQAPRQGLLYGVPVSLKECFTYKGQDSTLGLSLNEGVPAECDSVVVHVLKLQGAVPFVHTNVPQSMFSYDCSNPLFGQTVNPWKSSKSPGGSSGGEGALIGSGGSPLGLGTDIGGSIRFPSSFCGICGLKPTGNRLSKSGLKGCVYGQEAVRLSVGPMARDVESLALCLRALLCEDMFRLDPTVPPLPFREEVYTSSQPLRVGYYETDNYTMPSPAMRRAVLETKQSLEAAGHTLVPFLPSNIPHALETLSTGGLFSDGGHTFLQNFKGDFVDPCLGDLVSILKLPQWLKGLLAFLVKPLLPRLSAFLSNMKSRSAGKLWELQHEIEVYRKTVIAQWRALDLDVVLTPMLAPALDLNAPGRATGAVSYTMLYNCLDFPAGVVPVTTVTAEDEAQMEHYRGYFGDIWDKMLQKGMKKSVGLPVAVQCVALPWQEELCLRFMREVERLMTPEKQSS
Set-up: method as in PMID 32987725. The conditions noted are these: lead compounds 1 and 2, not among the eight compounds tested here; cited from earlier work.

Another test has as its target T3, Aβ40 (Homo sapiens, UniProt P05067).
T3 construct: purchased EZBiolab
Set-up: method as in PMID 26032855. The conditions noted are these: cited from earlier work.

Marks after values point to notes of the source that are not given here.

T3 sequence (P05067 672-711): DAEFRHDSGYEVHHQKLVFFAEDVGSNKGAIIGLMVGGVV

On to `O=C(O)C(Cc1ccccc1)Oc1ccc(-c2ccccc2)cc1` (stereo not shown) [Compound 1, reference compound], for which the maximal response (Emax) – broadly, the size of the effect at its maximum, as opposed to the concentration needed – on human PPARα (hPPARα) worked out at 116 ± 4%. In addition, on FAAH Human recombinant, the IC50 (as a rule, the midpoint of a concentration-inhibition curve) was more than 50 µM.

As for `O=C(O)C(Cc1ccccc1)Oc1ccc(C=Cc2ccccc2)cc1` (stereo not shown) [Compound 2], at FAAH Human recombinant, the IC50 is 24 ± 2.5 µM.

As for `COc1cc2c(cc1OC)C(=O)C(CC1CCN(Cc3ccccc3)CC1)C2` (stereo not shown) [Donepezil, donepezil], the “Aβ40 Aggr. percent of inhibition at 10 μM” value at Aβ40 is 14 ± 7 ^c %.

These data come from publication PMC8839882, “A New Series of Aryloxyacetic Acids Endowed with Multi-Target Activity towards Peroxisome Proliferator-Activated Receptors (PPARs), Fatty Acid Amide Hydrolase (FAAH), and Acetylcholinesterase (AChE)” (Molecules, 2022).
